The source of these data is publication PMC3068608 (Journal of medicinal chemistry, 2011).

One may read the Ki as the equilibrium dissociation constant of an inhibitor or competing ligand from its target. Low readings indicate a stronger hold on the target, high ones a looser hold on the target. What is called EC50 is the concentration at which the effect is half-maximal. High values mean a less potent agent, low ones a more potent agent. The IC50 is the concentration that inhibits the measured activity by half. Higher therefore signals a need for much substance.

“Also recorded” adds a separate entry of the source. Where two headings read alike, the source gives them in different places. Bounds are passed on as bounds.

Assay [1] concerns the target T1, human κ opioid receptor (Homo sapiens, UniProt P41145). As to conditions: [35S]GTPγS, ref [5c],[10c]; cited from earlier work. In general terms: Binding of GTPγS marks nucleotide exchange on a G protein.
For assay [2] the following is noted: acute and chronic treatment; ref [7]; cited from earlier work.
The target in assay [3] is T2, human μ opioid receptor (Homo sapiens, UniProt P35372). As to conditions: [35S]GTPγS, ref [5c],[10c]; cited from earlier work.
In assay [4] the target is T2, human μ opioid receptor. Briefly: [35S]GTPγS binding mediated by the μ opioid receptor, CHO membranes. The class given is biochemical. Particulars: for pharmacological properties / IC50: μ receptor; for pharmacological properties: [35S]GTPγS; for IC50: inhibition of binding stimulated by 200 nM DAMGO.
The target in assay [5] is T1, human κ opioid receptor. As to conditions: ratio of Ki values (δ over κ), literature compounds; ref [5c], [10c], [11]; cited from earlier work.
Assay [6] has as its target T3, human δ opioid receptor (Homo sapiens, UniProt P41143). Particulars: at 10 μM; ref [5c], [10c], [11]; cited from earlier work.
The target in assay [7] is T1, human κ opioid receptor. Put plainly: Opioid receptor binding, [3H]U69,593, CHO cell membranes. Particulars: for Selectivity σ/κ: ratio of Ki values (δ over κ); for Ki (nM) ± SEM [3H]U69,593 (κ): CHO membranes, human κ receptor, 25 °C.
Assay [8] deals with T2, human μ opioid receptor. Briefly: Opioid receptor binding, [3H]DAMGO, CHO cell membranes. As to conditions: for Ki (nM) ± SEM [3H]DAMGO (μ): CHO membranes, human μ receptor, 25 °C.
Assay [9] deals with T3, human δ opioid receptor. Put plainly: Opioid receptor binding, [3H]naltrindole, CHO cell membranes.
Assay [10] has as its target T1, human κ opioid receptor. Put plainly: [35S]GTPγS binding mediated by the κ opioid receptor, CHO membranes. The class given is biochemical. Particulars: for Emax ± SEM (% maximal stimulation): κ receptor, [35S]GTPγS.

T1 sequence (P41145 whole entry): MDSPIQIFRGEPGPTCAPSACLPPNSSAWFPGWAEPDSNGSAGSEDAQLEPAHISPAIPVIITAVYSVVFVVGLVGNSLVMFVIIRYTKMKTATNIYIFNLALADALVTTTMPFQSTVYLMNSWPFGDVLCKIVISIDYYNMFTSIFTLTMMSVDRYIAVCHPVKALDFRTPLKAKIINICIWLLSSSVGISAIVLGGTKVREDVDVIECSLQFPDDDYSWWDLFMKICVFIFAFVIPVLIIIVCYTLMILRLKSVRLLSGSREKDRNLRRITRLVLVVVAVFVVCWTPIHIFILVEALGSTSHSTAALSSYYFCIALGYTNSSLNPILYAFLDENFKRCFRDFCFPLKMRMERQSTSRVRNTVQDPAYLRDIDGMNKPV
T2 sequence (P35372 whole entry): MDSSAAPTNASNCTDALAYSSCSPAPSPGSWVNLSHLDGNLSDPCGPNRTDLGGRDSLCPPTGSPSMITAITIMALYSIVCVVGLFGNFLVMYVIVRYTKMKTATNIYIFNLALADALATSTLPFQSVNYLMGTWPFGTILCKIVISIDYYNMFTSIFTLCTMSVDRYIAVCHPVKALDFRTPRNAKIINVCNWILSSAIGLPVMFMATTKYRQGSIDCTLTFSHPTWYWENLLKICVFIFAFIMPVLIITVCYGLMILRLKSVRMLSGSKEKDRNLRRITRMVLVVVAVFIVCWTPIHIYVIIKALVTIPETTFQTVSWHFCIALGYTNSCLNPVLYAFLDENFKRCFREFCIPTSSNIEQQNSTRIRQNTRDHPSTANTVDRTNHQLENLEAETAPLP
T3 sequence (P41143 whole entry): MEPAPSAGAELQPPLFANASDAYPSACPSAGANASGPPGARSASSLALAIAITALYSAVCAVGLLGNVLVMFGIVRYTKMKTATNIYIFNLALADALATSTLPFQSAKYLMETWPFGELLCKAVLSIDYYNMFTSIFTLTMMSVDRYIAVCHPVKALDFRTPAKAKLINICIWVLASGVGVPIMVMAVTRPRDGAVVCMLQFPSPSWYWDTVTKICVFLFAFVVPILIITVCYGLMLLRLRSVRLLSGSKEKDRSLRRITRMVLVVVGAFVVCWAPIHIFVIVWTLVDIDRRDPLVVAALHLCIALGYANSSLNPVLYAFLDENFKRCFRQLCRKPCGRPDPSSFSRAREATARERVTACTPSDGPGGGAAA

Consider `Oc1ccc2c(c1)[C@@]13CCCC[C@H]1[C@@H](C2)N(CC1CC1)CC3` [compound 1, cyclorphan, reference compound], for which, on human κ opioid receptor [1], the “Emax ± SEM (% maximal stimulation)” value was 90 ±10 % maximal stimulation. The cocaine self-administration result in [2] is listed as “reduced cocaine self-administration dose-dependently”. Moreover, the pharmacological properties entry on human μ opioid receptor [3] was “Partial agonist”.
With `CN(C)c1nc2cc3c(cc2s1)C[C@@H]1[C@@H]2CCCC[C@]32CCN1CC1CC1` [17a, N′, N′-Dimethyl-aminothiazolo[5,4-b]-N-cyclopropylmethylmorphinan], the pharmacological properties entry on human μ opioid receptor [4] was “partial agonist activity”.
On to `Nc1nc2cc3c(cc2o1)[C@@]12CCCC[C@H]1[C@@H](C3)N(CC1CC1)CC2` [compound 4], for which, at human κ opioid receptor [5], the “Selectivity σ/κ” value was more than 192. Besides, the “inhibition of [3H]Naltrindole (δ) binding” value at human δ opioid receptor [6] is reported as 18% inh at 10 μM.
In the case of `c1ccc(Nc2nc3cc4c(cc3s2)C[C@@H]2[C@@H]3CCCC[C@]43CCN2CC2CC2)nc1` [compound 27, N′-(Pyridin-2-yl)-aminothiazolo[5,4-b]-N-cyclopropylmethylmorphinan], on human κ opioid receptor [7], the “Selectivity σ/κ” value is given as more than 110.
On to `c1c2c(cc3sc(N4CCNCC4)nc13)C[C@@H]1[C@@H]3CCCC[C@]23CCN1CC1CC1` [compound 28, N′-(Piperazin-1-yl)-thiazolo[5,4-b]-N-cyclopropylmethylmorphinan], for which the Ki was 110 ± 16 nM at human κ opioid receptor [7], 2700 ± 320 nM at human μ opioid receptor [8] and more than 10000 nM at human δ opioid receptor [9]. Moreover, at human κ opioid receptor [7] (ratio of Ki values), the “Selectivity μ/κ” value was determined as 25. In addition, the “Selectivity σ/κ” value at human κ opioid receptor [7] was more than 91.
For the compound `CNc1nc2cc3c(cc2s1)C[C@@H]1[C@@H]2CCCC[C@]32CCN1CCCF` [13c, N′-Methyl-aminothiazolo[5,4-b]-N-fluoropropylmorphinan], at human κ opioid receptor [10], the EC50 stood at 120 ± 6.7 nM and the “Emax ± SEM (% maximal stimulation)” value is “higher Emax than that of selective agonist U50,488”. Further, on human μ opioid receptor [4], the EC50 stood at 420 ± 17 nM, the pharmacological properties entry is given as “full agonist activity; also recorded: full agonists” and the 50% inhibitory concentration (IC50) was more than 10000 nM.
On to `Oc1ccc2c(c1)[C@@]13CCCC[C@H]1[C@@H](C2)N(CC1CCC1)CC3` [butorphan], for which the cocaine self-administration result in assay [2] was “reduced cocaine self-administration dose-dependently”.
In the case of `CCNc1nc2cc3c(cc2s1)C[C@@H]1[C@@H]2CCCC[C@]32CCN1CCCF` [19c, N′-Ethyl-aminothiazolo[5,4-b]-N-fluoropropylmorphinan], the “Emax ± SEM (% maximal stimulation)” value at human κ opioid receptor [10] is reported as “higher Emax than that of selective agonist U50,488”. Also, at human μ opioid receptor [4], the pharmacological properties result is “full agonist activity; also recorded: full agonists” and the IC50 is more than 10000 nM.
Turning to `CCCNc1nc2cc3c(cc2s1)C[C@@H]1[C@@H]2CCCC[C@]32CCN1CCCF` [16c, N′-Propyl-aminothiazolo[5,4-b]-N-fluoropropylmorphinan], the “Ki (nM) ± SEM [3H]U69,593 (κ)” value on human κ opioid receptor [7] was “low affinity”. In addition, at human μ opioid receptor [8], the “Ki (nM) ± SEM [3H]DAMGO (μ)” value is recorded as “low affinity”.
Consider `FC(F)(F)CNc1nc2cc3c(cc2s1)C[C@@H]1[C@@H]2CCCC[C@]32CCN1CC1CC1` [compound 15, N′-Trifluoroethyl-aminothiazolo[5,4-b]-N-cyclopropylmethylmorphinan], for which the “Emax ± SEM (% maximal stimulation)” value at human κ opioid receptor [10] is recorded as “higher Emax than that of selective agonist U50,488”.
Consider `CCNc1nc2cc3c(cc2s1)C[C@@H]1[C@@H]2CCCC[C@]32CCN1CC1CC1` [19a, N′-Ethyl-aminothiazolo[5,4-b]-N-cyclopropylmethylmorphinan], for which, on human κ opioid receptor [10], the EC50 is 22 ± 5.1 nM and the “Emax ± SEM (% maximal stimulation)” value is listed as “higher Emax than that of selective agonist U50,488”. Moreover, at human μ opioid receptor [4], a half-maximal response (EC50) required 29 ± 4.6 nM, the pharmacological properties entry is on record as “full agonist activity; also recorded: full agonists” and the IC50 was more than 10000 nM.
Regarding `Nc1nc2cc3c(cc2s1)C[C@@H]1[C@@H]2CCCC[C@]32CCN1C[C@@H]1CCCO1` [compound 12, Aminothiazolo[5,4-b]-N-(S)-tetrahydrofurylmethylmorphinan], at human μ opioid receptor [4], the pharmacological properties result is listed as “full agonist activity; also recorded: full agonists” and the IC50 was more than 10000 nM.
Turning to `CNc1nc2cc3c(cc2s1)C[C@@H]1[C@@H]2CCCC[C@]32CCN1CC1CC1` [13a, N′-Methylaminothiazolo[5,4-b]-N-cyclopropylmethylmorphinan], the pharmacological properties result at human μ opioid receptor [4] was “partial agonist activity; also recorded: partial agonists”.
As for `CN(C)c1nc2cc3c(cc2s1)C[C@@H]1[C@@H]2CCCC[C@]32CCN1CCCF` [17c, N′, N′-Dimethyl-aminothiazolo[5,4-b]-N-fluoropropylmethylmorphinan], the “Ki (nM) ± SEM [3H]U69,593 (κ)” value at human κ opioid receptor [7] is on record as “low affinity”. For the same compound, the “Ki (nM) ± SEM [3H]DAMGO (μ)” value at human μ opioid receptor [8] is “low affinity”.
In the case of `Nc1nc2cc3c(cc2s1)C[C@@H]1[C@@H]2CCCC[C@]32CCN1CCCF` [compound 11, Aminothiazolo[5,4-b]-N-fluoropropylmorphinan], the pharmacological properties entry at human μ opioid receptor [4] is recorded as “partial agonist activity”.
